{
  "source": "patent US6448279B1",
  "about": "“Isothiazolone/amine oxide wood preservatives” (Lonza Inc., priority 1999, dated 2002)",
  "experiment_in_all_cases": "agar dilution plate method, percent retardation of wood rot fungi",
  "type_in_all_cases": "cell-based",
  "key": {"[1]": {"test_system": "C. globosum (soft rot decay fungi)", "method": "(§1) The efficacy of aqueous 1,2-benzisothiazolone/amine oxide solutions containing the amine oxides in Table 1 against the wood rot fungi T. versicolor (white rot fungi), G. trabeum (brown rot fungi), P. placenta (brown rot fungi), and C. globosum (soft rot decay fungi) were determined using the agar dilution plate method well known in the art. The water in the solution was evaporated to form an agar/biocide mixture and then tested. Each solution was tested at dilutions ranging from 10 to 5000 ppm of benzisothiazolone. The weight ratio of amine oxide to 1,2-benzisothiazolone was either 20:1 or 10:1 in each solution. The percent retardation of the fungi was determined by the percentage change in the diameter of the fungi on the agar plate (i.e. Percent Retardation=((Diameter of Control)−(Diameter of Treated Fungi))/(Diameter of Control)* 100%).\n(§2) The efficacy of aqueous 4,5-dichloro-2-n-octyl-3-isothiazolone/amine oxide solutions containing the amine oxides in Table 2 against the wood rot fungi T. versicolor (white not fungi), G. trabeum (brown rot fungi), P. placenta (brown rot fungi), and C. globosum (soft rot decay fungi) were determined as described in Example 6."}, "[2]": {"test_system": "T. versicolor (white rot fungi)", "method": "as §1, §2"}, "[3]": {"test_system": "G. trabeum (brown rot fungi)", "method": "as §1, §2"}, "[4]": {"test_system": "P. placenta (brown rot fungi)", "method": "as §1, §2"}, "[5]": {"details": "no amine oxide, 4,5-dichloro-2-n-octyl-isothiazolone 0.5 ppm"}, "[6]": {"details": "no amine oxide, 4,5-dichloro-2-n-octyl-isothiazolone 5 ppm"}, "[7]": {"details": "no amine oxide, 4,5-dichloro-2-n-octyl-isothiazolone 50 ppm"}, "[8]": {"details": "no amine oxide, 4,5-dichloro-2-n-octyl-isothiazolone 100 ppm"}, "[9]": {"details": "no amine oxide, 4,5-dichloro-2-n-octyl-isothiazolone 250 ppm"}, "[10]": {"details": "no amine oxide, 4,5-dichloro-2-n-octyl-isothiazolone 500 ppm"}, "[11]": {"details": "no amine oxide, 4,5-dichloro-2-n-octyl-isothiazolone 750 ppm"}},
  "data": [
    {"smiles": "CCCCCCCCn1sc(Cl)c(Cl)c1=O", "note": "[4,5-dichloro-2-n-octyl-isothiazolone, 4,5-dichloro-2-n-octyl-3-isothiazolone]", "values": [
      {"measurement": "Percent Retardation C. globosum", "setting": "[1]; [5]", "value": 63, "unit": "%"},
      {"measurement": "Percent Retardation C. globosum", "setting": "[1]; [6]", "value": 60, "unit": "%"},
      {"measurement": "Percent Retardation C. globosum", "setting": "[1]; [7]", "value": 67, "unit": "%"},
      {"measurement": "Percent Retardation C. globosum", "setting": "[1]; [8]", "value": 78, "unit": "%"},
      {"measurement": "Percent Retardation C. globosum", "setting": "[1]; [9]", "value": 89, "unit": "%"},
      {"measurement": "Percent Retardation C. globosum", "setting": "[1]; [10]", "value": 100, "unit": "%"},
      {"measurement": "Percent Retardation C. globosum", "setting": "[1]; [11]", "value": 100, "unit": "%"},
      {"measurement": "Percent Retardation T Versicolor", "setting": "[2]; [5]", "value": 12, "unit": "%"},
      {"measurement": "Percent Retardation T Versicolor", "setting": "[2]; [6]", "value": 51, "unit": "%"},
      {"measurement": "Percent Retardation T Versicolor", "setting": "[2]; [7]", "value": 82, "unit": "%"},
      {"measurement": "Percent Retardation T Versicolor", "setting": "[2]; [8]", "value": 87, "unit": "%"},
      {"measurement": "Percent Retardation T Versicolor", "setting": "[2]; [9]", "value": 87, "unit": "%"},
      {"measurement": "Percent Retardation T Versicolor", "setting": "[2]; [10]", "value": 88, "unit": "%"},
      {"measurement": "Percent Retardation T Versicolor", "setting": "[2]; [11]", "value": 100, "unit": "%"},
      {"measurement": "Percent Retardation G. trabeum", "setting": "[3]; [5]", "value": 11, "unit": "%"},
      {"measurement": "Percent Retardation G. trabeum", "setting": "[3]; [6]", "value": 63, "unit": "%"},
      {"measurement": "Percent Retardation G. trabeum", "setting": "[3]; [7]", "value": 83, "unit": "%"},
      {"measurement": "Percent Retardation G. trabeum", "setting": "[3]; [8]", "value": 85, "unit": "%"},
      {"measurement": "Percent Retardation G. trabeum", "setting": "[3]; [9]", "value": 87, "unit": "%"},
      {"measurement": "Percent Retardation G. trabeum", "setting": "[3]; [10]", "value": 88, "unit": "%"},
      {"measurement": "Percent Retardation G. trabeum", "setting": "[3]; [11]", "value": 100, "unit": "%"},
      {"measurement": "Percent Retardation P. placenta", "setting": "[4]; [5]", "value": 42, "unit": "%"},
      {"measurement": "Percent Retardation P. placenta", "setting": "[4]; [6]", "value": 83, "unit": "%"},
      {"measurement": "Percent Retardation P. placenta", "setting": "[4]; [7]", "value": 100, "unit": "%"},
      {"measurement": "Percent Retardation P. placenta", "setting": "[4]; [8]", "value": 100, "unit": "%"},
      {"measurement": "Percent Retardation P. placenta", "setting": "[4]; [9]", "value": 100, "unit": "%"},
      {"measurement": "Percent Retardation P. placenta", "setting": "[4]; [10]", "value": 100, "unit": "%"}
    ]}
  ]
}
